According to PubChem BioAssay (NCI):
“And” between values parts separate entries of the source, which are not always exact repeats. Equal entries are not always repeated.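 These data come from cells grown in 96-well plates and exposed to compound for 48 hours at five concentrations. GI50: concentration for 50% inhibition of growth. Definition used: TGI = concentration required for complete inhibition of growth.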

Legend:
Test in all cases: NCI tumour cell line growth inhibition, 48 h
786-0 renal = system: 786-0 renal
ACHN renal = system: ACHN renal
COLO 205 colon = system: COLO 205 colon
EKVX NSCLC = system: EKVX NSCLC
IGROV1 ovarian = system: IGROV1 ovarian
MCF7 breast = system: MCF7 breast
MDA-N = system: MDA-N
NCI/ADR-RES ovarian = system: NCI/ADR-RES ovarian
SF-268 CNS = system: SF-268 CNS
UACC-257 melanoma = system: UACC-257 melanoma

## C1#Cc2ccccc2OCCOc2ccccc2C#Cc2ccccc2OCCOc2ccccc21
786-0 renal
  TGI: 28.8 µM
ACHN renal
  TGI: 37.9 µM
COLO 205 colon
  TGI: > 100 µM
EKVX NSCLC
  TGI: 98.9 µM
IGROV1 ovarian
  TGI: 41.5 µM
MCF7 breast
  TGI: > 100 µM
MDA-N
  TGI: > 100 µM
NCI/ADR-RES ovarian
  TGI: > 100 µM
SF-268 CNS
  TGI: 46.3 µM
UACC-257 melanoma
  TGI: > 100 µM

## COc1ccc(C(=C(I)c2ccccc2)c2ccc(OC)cc2)cc1
786-0 renal
  TGI: > 100 µM
ACHN renal
  TGI: > 100 µM
COLO 205 colon
  TGI: > 100 µM
EKVX NSCLC
  TGI: > 100 µM
IGROV1 ovarian
  TGI: > 100 µM
MCF7 breast
  TGI: > 100 µM
MDA-N
  TGI: > 100 µM
NCI/ADR-RES ovarian
  TGI: > 100 µM
SF-268 CNS
  TGI: > 100 µM
UACC-257 melanoma
  TGI: > 100 µM

## Nc1ccccc1NC(=O)CCCCCCC(=O)Nc1ccc2c(c1)/C(=C/c1ccc[nH]1)C(=O)N2
ACHN renal
  GI50: 15.1 µM
  TGI: > 100 µM
COLO 205 colon
  GI50: 43.8 µM
  TGI: > 100 µM
IGROV1 ovarian
  GI50: 49.8 µM
  TGI: > 100 µM
MCF7 breast
  GI50: 3.6 µM
  TGI: > 100 µM
NCI/ADR-RES ovarian
  GI50: > 100 µM
  TGI: > 100 µM
SF-268 CNS
  GI50: 6.64 µM
  TGI: > 100 µM
UACC-257 melanoma
  GI50: > 100000 nM
  TGI: > 100 µM

## CCOC(=O)C(NC(=O)CC(C)C)(Nc1ccc(C(F)(F)F)cc1)C(F)(F)F (stereo not drawn)
786-0 renal
  TGI: > 100 µM
ACHN renal
  TGI: 91 µM
EKVX NSCLC
  TGI: > 100 µM
IGROV1 ovarian
  TGI: > 100 µM
MCF7 breast
  TGI: > 100 µM
MDA-N
  TGI: > 100 µM
NCI/ADR-RES ovarian
  TGI: > 100 µM
SF-268 CNS
  TGI: > 100 µM
UACC-257 melanoma
  TGI: > 100 µM

## CC1(C)[C@@H](Cn2cnc3c(=O)[nH]c(N)nc32)CC[C@@]1(C)CO
786-0 renal
  TGI: > 100 µM
ACHN renal
  TGI: > 100 µM
EKVX NSCLC
  TGI: > 100 µM
MCF7 breast
  TGI: > 100 µM
MDA-N
  TGI: > 100 µM
NCI/ADR-RES ovarian
  TGI: > 100 µM
SF-268 CNS
  TGI: > 100 µM
UACC-257 melanoma
  TGI: > 100 µM

## O=C(Nc1nnc(-c2ccccc2)o1)C(SC(=S)N1CCOCC1)c1ccccc1 (stereo not drawn)
786-0 renal
  TGI: > 100 µM
ACHN renal
  TGI: > 100 µM
COLO 205 colon
  TGI: > 100 µM
EKVX NSCLC
  TGI: 55.5 µM
IGROV1 ovarian
  TGI: > 100 µM
MCF7 breast
  TGI: > 100 µM
MDA-N
  TGI: > 100 µM
NCI/ADR-RES ovarian
  TGI: 64.7 µM
UACC-257 melanoma
  TGI: > 100 µM

## O=C(NCCCCNCCCNC(=O)c1ccccc1)c1ccccc1
786-0 renal
  TGI: > 100 µM
ACHN renal
  TGI: > 100 µM
COLO 205 colon
  TGI: > 100 µM
EKVX NSCLC
  TGI: > 100 µM
IGROV1 ovarian
  TGI: > 100 µM
MCF7 breast
  TGI: > 100 µM
NCI/ADR-RES ovarian
  TGI: > 100 µM
SF-268 CNS
  TGI: > 100 µM
UACC-257 melanoma
  TGI: > 100 µM

## COc1ccc(C[C@H](N)C(=O)N2C[C@H](CO)C[C@H](n3cnc4c(N(C)C)ncnc43)C2)cc1
ACHN renal
  TGI: > 100 µM
COLO 205 colon
  TGI: > 100 µM
EKVX NSCLC
  TGI: > 100 µM
IGROV1 ovarian
  TGI: > 100 µM
SF-268 CNS
  TGI: > 100 µM

## OCC(O)C1OC2CC1Nc1ccccc1N2 (stereo not drawn)
786-0 renal
  TGI: > 100 µM
ACHN renal
  TGI: > 100 µM
COLO 205 colon
  TGI: > 100 µM
EKVX NSCLC
  TGI: > 100 µM
IGROV1 ovarian
  TGI: > 100 µM
NCI/ADR-RES ovarian
  TGI: > 100 µM
SF-268 CNS
  TGI: > 100 µM
UACC-257 melanoma
  TGI: > 100 µM

## CN(C)CCCNc1c2ccccc2nc2cccc([N+](=O)[O-])c12
786-0 renal
  TGI: 0.0058 µM and 0.0531 µM
EKVX NSCLC
  TGI: 0.448 µM
IGROV1 ovarian
  TGI: 0.00491 µM
MCF7 breast
  TGI: 0.00188 µM
MDA-N
  TGI: 0.00246 µM
NCI/ADR-RES ovarian
  TGI: 0.186 µM
SF-268 CNS
  TGI: 0.00943 µM and 0.0426 µM
UACC-257 melanoma
  GI50: 20.7 nM
  TGI: 0.00749 µM and 0.0452 µM

## COc1ccc(-c2nc(-c3cc4ccccc4oc3=O)cs2)cc1
786-0 renal
  TGI: > 100 µM
ACHN renal
  TGI: > 100 µM
COLO 205 colon
  TGI: > 100 µM
EKVX NSCLC
  TGI: > 100 µM
IGROV1 ovarian
  TGI: > 100 µM
MCF7 breast
  TGI: > 100 µM
NCI/ADR-RES ovarian
  TGI: > 100 µM
SF-268 CNS
  TGI: > 100 µM
UACC-257 melanoma
  TGI: > 100 µM

## CC(=O)NC1C(OCc2ccccc2)OC(CO)C(O)C1OCC(=O)NC(C)C(=O)NC(CCC(=O)NCCCCCNc1c2ccccc2nc2cccc([N+](=O)[O-])c12)C(N)=O (stereo not drawn)
786-0 renal
  TGI: 0.000206 µM
ACHN renal
  TGI: < 0.0001 µM
COLO 205 colon
  TGI: < 0.0001 µM
IGROV1 ovarian
  GI50: 0.0124 µM
MCF7 breast
  TGI: < 0.0001 µM
SF-268 CNS
  TGI: < 0.0001 µM
UACC-257 melanoma
  TGI: 0.00332 µM

## C=C(CC(=O)Nc1ccc(C(=O)OC)o1)C(=O)OC
786-0 renal
  TGI: 39.6 µM
ACHN renal
  TGI: 34.6 µM
COLO 205 colon
  TGI: 41.1 µM
EKVX NSCLC
  TGI: 45 µM
IGROV1 ovarian
  TGI: 55.5 µM
MCF7 breast
  TGI: 54 µM
NCI/ADR-RES ovarian
  TGI: > 100 µM
SF-268 CNS
  TGI: > 100 µM
UACC-257 melanoma
  TGI: 44.5 µM

## Cc1ccc(S(=O)(=O)NC(=O)NCCC(=O)O)cc1
786-0 renal
  TGI: > 100 µM
ACHN renal
  TGI: > 100 µM
COLO 205 colon
  TGI: > 100 µM
IGROV1 ovarian
  TGI: > 100 µM
MCF7 breast
  TGI: > 100 µM
MDA-N
  TGI: > 100 µM
SF-268 CNS
  TGI: > 100 µM
UACC-257 melanoma
  TGI: > 100 µM

## Cn1c(-c2ccc[se]2)ccc1-c1ccc(CO)[se]1
786-0 renal
  TGI: > 100 µM
ACHN renal
  TGI: > 71.5 µM
COLO 205 colon
  TGI: 6.01 µM
EKVX NSCLC
  TGI: > 100 µM
MCF7 breast
  TGI: > 100 µM
MDA-N
  TGI: > 60.5 µM
NCI/ADR-RES ovarian
  TGI: 52.2 µM
SF-268 CNS
  TGI: > 100 µM
UACC-257 melanoma
  TGI: 0.102 µM

## COc1ccc(C[C@H](N)C(=O)N2C[C@H](CO)C[C@H](n3ccc(=O)[nH]c3=O)C2)cc1
ACHN renal
  TGI: > 100 µM
COLO 205 colon
  TGI: > 100 µM
EKVX NSCLC
  TGI: > 100 µM
IGROV1 ovarian
  TGI: > 100 µM
SF-268 CNS
  TGI: > 100 µM

## COc1ccccc1NC(=S)N/N=C(/C)c1ccccn1
786-0 renal
  TGI: 5.17 µM
ACHN renal
  TGI: 12.9 µM
EKVX NSCLC
  TGI: > 100 µM
MCF7 breast
  TGI: > 100 µM
MDA-N
  TGI: > 100 µM

## CCOC(=O)CCc1c(C(=O)OCC)[nH]c(/C=C2\NC(=O)C(C)=C2CC)c1C
786-0 renal
  TGI: 27.5 µM
ACHN renal
  TGI: 41.2 µM
COLO 205 colon
  TGI: > 100 µM
EKVX NSCLC
  TGI: 50.3 µM
IGROV1 ovarian
  TGI: 23.7 µM
MCF7 breast
  TGI: > 100 µM
NCI/ADR-RES ovarian
  TGI: 32.4 µM
SF-268 CNS
  TGI: 92.1 µM

## CN(C)CCOC(=O)c1ccc(N)cc1
786-0 renal
  TGI: > 100 µM
ACHN renal
  TGI: > 100 µM
COLO 205 colon
  TGI: > 100 µM
IGROV1 ovarian
  TGI: 74.9 µM
MCF7 breast
  TGI: > 100 µM
MDA-N
  TGI: > 100 µM
NCI/ADR-RES ovarian
  TGI: > 100 µM
SF-268 CNS
  TGI: > 100 µM
UACC-257 melanoma
  TGI: 54 µM

## C[C@H](CC[C@@H](O)C(C)(C)O)[C@H]1CC[C@@]2(C)[C@@H]3CC=C4[C@@H](CC[C@H](O)C4(C)C)[C@]3(C)C(=O)C[C@]12C
786-0 renal
  TGI: > 50 µM
ACHN renal
  TGI: > 50 µM
COLO 205 colon
  TGI: 31.8 µM
EKVX NSCLC
  TGI: > 50 µM
IGROV1 ovarian
  TGI: > 50 µM
MCF7 breast
  TGI: > 50 µM
MDA-N
  TGI: > 50 µM
NCI/ADR-RES ovarian
  TGI: > 50 µM
UACC-257 melanoma
  TGI: > 50 µM

## CCc1nn(S(=O)(=O)c2ccc(C)cc2)c2c1CS(=O)(=O)CC2
786-0 renal
  TGI: > 100 µM
ACHN renal
  TGI: > 100 µM
COLO 205 colon
  TGI: > 100 µM
EKVX NSCLC
  TGI: > 100 µM
MCF7 breast
  TGI: > 100 µM
MDA-N
  TGI: > 100 µM
NCI/ADR-RES ovarian
  TGI: > 100 µM
SF-268 CNS
  TGI: > 100 µM
UACC-257 melanoma
  TGI: > 100 µM

## C[C@@H]1C[C@]2(C[C@@H](C)[C@H]3C(C[C@@]4(C)CCC[C@@H]5C6=C[C@H](CCC34C)OC6=CC(=O)OC5(C)C)O2)OC1=O (stereo partly drawn)
COLO 205 colon
  TGI: > 51.5 µM
EKVX NSCLC
  TGI: > 51.5 µM
IGROV1 ovarian
  TGI: > 51.5 µM
MCF7 breast
  TGI: > 51.5 µM
NCI/ADR-RES ovarian
  TGI: > 51.5 µM
UACC-257 melanoma
  TGI: > 51.5 µM

## CO/C(=N\N=C\c1ccc(Cl)cc1Cl)c1ccncc1
786-0 renal
  TGI: > 10 µM
ACHN renal
  TGI: > 10 µM
COLO 205 colon
  TGI: > 10 µM
EKVX NSCLC
  TGI: > 10 µM
MCF7 breast
  TGI: > 10 µM
MDA-N
  TGI: > 10 µM
NCI/ADR-RES ovarian
  TGI: > 10 µM
SF-268 CNS
  TGI: > 10 µM
UACC-257 melanoma
  TGI: > 10 µM
